The target of one series is T1, UGT1A9 (Homo sapiens, UniProt O60656).
T1 construct: expressed in transfected cells; microsomal fraction
T1 sequence (O60656 26-530): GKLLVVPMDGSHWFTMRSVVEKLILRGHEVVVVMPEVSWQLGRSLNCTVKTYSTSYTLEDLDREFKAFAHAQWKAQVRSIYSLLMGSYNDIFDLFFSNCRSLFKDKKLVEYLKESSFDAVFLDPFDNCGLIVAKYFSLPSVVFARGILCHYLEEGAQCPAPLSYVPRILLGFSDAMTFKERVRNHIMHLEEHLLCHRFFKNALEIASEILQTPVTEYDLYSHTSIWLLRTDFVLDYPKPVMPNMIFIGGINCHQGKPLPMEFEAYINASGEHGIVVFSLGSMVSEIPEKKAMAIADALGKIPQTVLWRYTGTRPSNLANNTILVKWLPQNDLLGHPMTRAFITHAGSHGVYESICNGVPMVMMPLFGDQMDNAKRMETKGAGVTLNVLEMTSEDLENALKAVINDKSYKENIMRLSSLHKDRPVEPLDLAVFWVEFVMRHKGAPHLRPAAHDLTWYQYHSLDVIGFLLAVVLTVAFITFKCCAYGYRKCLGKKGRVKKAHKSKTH
Description: Inhibition of R-oxazepam glucuronidation in rUGT1A9 microsomes (UGT-overexpressing HEK293). The series is classed as biochemical. As to the method: (§1) Human embryonic kidney cells (HEK293) stably overexpressing the single UGTs 1A9, 2B7, and 2B15 have been previously established and described. Cells were grown in DMEM supplemented with 350 μg/mL of geneticin and 10% FBS and harvested in PBS. Microsomal fractions of UGT-overexpressing cell lines were prepared by differential centrifugation using previously described protocols. Briefly, cell homogenates were prepared by resuspending pelleted cells in PBS, followed by five rounds of freeze–thaw cycles prior to homogenization. Recombinant microsomes (rUGTs) were prepared by centrifuging the cell homogenate at a low speed (9000× g for 30 min) followed by ultracentrifugation (34,000× g for 60 min), with the total protein subsequently determined using a BCA assay. Recombinant microsomes (UGT1A9 and 2B7) and homogenates (UGT2B15) were used for inhibition studies.
(§2) A Waters Corp BEH C18 Acquity UPLC column (1.7 µM, 2.1 × 100 mm) was used at a constant temperature of 40 °C for chromatographic separation. An elution gradient was used for 6.5 min with mobile phases A (5 mM ammonium formate) and B (100% methanol) under the following conditions: 90% A for 0.5 min, followed by a linear gradient for 3 min to 60% A, 1 min at 5% A, and re-equilibration for 1 min at 90% A.
(§3) The reaction was initiated by the addition of 4 mM UDPGA as the cofactor and incubated for 2 h at 37 °C. The reaction was terminated by adding 30 µL of an ice-cold stop solution (acetonitrile/methanol; 1:1). The reaction mixtures were centrifuged at 17,000× g for 30 min at 4 °C, and the supernatant was transferred to UPLC sample glass vial for analysis using UPLC–MS/MS (described above). […] As a positive control for inhibition assays, ketoconazole (10 μM and 100 µM) was used as a potential inhibitor of the UGTs 1A9, 2B7, and 2B15. Reactions containing only the cannabinoid vehicle (3% methanol) and without any inhibitor (cannabinoids) were used as a baseline reaction for 100% enzyme activity, while a reaction without UDPGA was used as a negative control. All experiments were performed in three independent experiments.
(§4) Determination of IC50 and Ki Values. […] The nonspecific binding constants (fu,inc) for cannabinoids in HEK293 microsomes, HLM, and HKM were previously determined and used to calculate the inhibition by unbound (‘free’) cannabinoid in each reaction. A nonlinear regression analysis and the following equation were used to calculate the IC50 values:(1) y = Bottom +Top − Bottom / 1 + 10^x − LogIC50A where ‘Bottom’ is the maximum observed inhibition (lowest percent activity) and ‘Top’ is the minimum observed inhibition (highest percent activity) for a given cannabinoid.

The next series concerns the target T2, UGT2B7 (Homo sapiens, UniProt P16662).
T2 construct: expressed in transfected cells; microsomal fraction
T2 sequence (P16662 24-529): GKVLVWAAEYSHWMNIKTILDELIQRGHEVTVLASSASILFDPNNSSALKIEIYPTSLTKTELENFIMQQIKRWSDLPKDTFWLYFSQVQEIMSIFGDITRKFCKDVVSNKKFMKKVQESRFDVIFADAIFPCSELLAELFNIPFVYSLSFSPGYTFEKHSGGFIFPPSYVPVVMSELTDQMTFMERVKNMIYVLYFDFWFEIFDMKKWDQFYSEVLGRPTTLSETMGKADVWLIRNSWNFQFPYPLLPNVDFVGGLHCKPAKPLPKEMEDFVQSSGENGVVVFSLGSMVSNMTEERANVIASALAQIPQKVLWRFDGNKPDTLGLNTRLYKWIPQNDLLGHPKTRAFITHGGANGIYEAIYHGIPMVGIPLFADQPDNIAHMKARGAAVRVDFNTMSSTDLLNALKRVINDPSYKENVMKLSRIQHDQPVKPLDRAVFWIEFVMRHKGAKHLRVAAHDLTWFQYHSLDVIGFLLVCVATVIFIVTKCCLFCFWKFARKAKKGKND
Kind of series: Inhibition of R- and S-oxazepam glucuronidation in rUGT2B7 microsomes (UGT-overexpressing HEK293). The series is classed as biochemical. The method, then: as §1, §2, §3, §4

In another series the target is T3, UGT2B15 (Homo sapiens, UniProt P54855).
T3 construct: expressed in transfected cells; cell homogenate
T3 sequence (P54855 24-530): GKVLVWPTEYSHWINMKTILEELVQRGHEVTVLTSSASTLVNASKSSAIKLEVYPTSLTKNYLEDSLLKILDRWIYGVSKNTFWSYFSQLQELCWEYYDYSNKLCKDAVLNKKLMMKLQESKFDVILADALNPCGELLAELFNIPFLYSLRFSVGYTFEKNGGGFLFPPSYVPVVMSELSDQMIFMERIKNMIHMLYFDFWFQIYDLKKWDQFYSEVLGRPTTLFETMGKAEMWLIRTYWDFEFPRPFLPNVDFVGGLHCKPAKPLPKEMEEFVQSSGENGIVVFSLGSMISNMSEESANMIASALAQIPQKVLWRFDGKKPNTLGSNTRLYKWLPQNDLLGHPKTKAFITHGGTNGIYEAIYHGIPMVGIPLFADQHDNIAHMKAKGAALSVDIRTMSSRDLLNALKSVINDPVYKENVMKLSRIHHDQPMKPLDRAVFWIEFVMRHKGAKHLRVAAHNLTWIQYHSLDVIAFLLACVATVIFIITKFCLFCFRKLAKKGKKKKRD
Description: Inhibition of S-oxazepam glucuronidation in rUGT2B15 homogenate/microsomes (UGT-overexpressing HEK293). The series is classed as biochemical. As to the method: as §1, §2, §3, §4

Series [1] deals with human kidney microsomes (HKM). Kind of series: Inhibition of R- and S-oxazepam glucuronidation in human kidney microsomes. The following applies: read-out: IC50, oxazepam glucuronidation (marginal or no inhibition). As to the method:
as §2, §3, §4

In series [2] the test system is human liver microsomes (HLM). Description: Inhibition of R- and S-oxazepam glucuronidation in human liver microsomes. Particulars: read-out: IC50, oxazepam glucuronidation (marginal or no inhibition). As to the method:
as §2, §3, §4
The inhibition constant (Ki) was generated from the in vitro IC50 values assuming competitive inhibition (based on the Cheng–Prusoff equation; [49]). Considering that there have been no reports of the irreversible inhibition (e.g., mechanism-based inhibition) of UGTs, competitive inhibition was assumed as the worst-case scenario (highest inhibition) among all feasible types of reversible inhibitions. The substrate concentration used in the incubations was below the reported Km; therefore, the Ki values were predicted using Equation (2):(2) Ki=IC50/S/Km+1 where Km is Michaelis–Menten constant for the substrate, S is the substrate concentration, and IC50 is half-maximal inhibitory concentration.
(In general: Liver microsomes are a subcellular fraction often used to study metabolism.)

For series [3] the following is noted: value set for the static model; cited from earlier work.
Setting [4] is: rUGT2B7 microsomes, 100 µM cannabinoid.

The term inhibition denotes the drop in the measured response relative to a control, in per cent. Higher therefore signals a response far below the control. A word on the IC50: it is the concentration needed to halve the response being measured.

Consider `CC(=O)N1CCN(c2ccc(OCC3COC(Cn4ccnc4)(c4ccc(Cl)cc4Cl)O3)cc2)CC1` (stereo not drawn) [ketoconazole], for which the inhibition at 2 h, 100 µM against UGT1A9 (human, pH 7.4, probe R,S-oxazepam 4 µM, oxazepam glucuronide formation, rUGT1A9 microsomes, 100 µM ketoconazole, range over the three enzymes) is 49 to 85%; at UGT2B7 (human, pH 7.4, probe R,S-oxazepam 60 µM, oxazepam glucuronide formation, Inhibition of oxazepam glucuronide formation, rUGT2B7 microsomes, 100 µM ketoconazole, range over the three enzymes), 49 to 85%; against UGT2B15 (human, pH 7.4, probe R,S-oxazepam 12 µM, oxazepam glucuronide formation, rUGT2B15 microsomes, 100 µM ketoconazole, range over the three enzymes) it was 49 to 85%.

With `CCCCCc1cc(O)c2c(c1)OC(C)(C)[C@@H]1CCC(C(=O)O)=C[C@@H]21` [11-COOH-THC, 11-nor-9-carboxy-Δ^9-tetrahydrocannabinol], the “Inhibition of R-oxazepam glucuronide formation” value on UGT1A9 (rUGT1A9 microsomes, 100 µM cannabinoid, vs control without cannabinoid) stood at 80%. For the same compound, the IC50 is > 100 µM on UGT1A9 (read-out: IC50, oxazepam glucuronidation (marginal or no inhibition), recombinant UGT microsomes (rUGT1A9)); > 100 µM at UGT2B7 (read-out: IC50, oxazepam glucuronidation (marginal or no inhibition), recombinant UGT microsomes (rUGT2B7)); > 100 µM in series [1]; > 100 µM in series [2]; > 100 µM on UGT2B15 (read-out: IC50, oxazepam glucuronidation (marginal or no inhibition), recombinant UGT microsomes (rUGT2B15)). The “Inhibition of R-oxazepam glucuronidation” value at UGT2B7 (setting [4]) is reported as 45%. The “Inhibition of S-oxazepam glucuronidation” value on UGT2B7 (setting [4]) is 55%.

On to `O=C1Nc2ccc(Cl)cc2C(c2ccccc2)=NC1O` (stereo not drawn) [oxazepam, Oxazepam], for which the “fm (fractional metabolism via glucuronidation)” value in series [3] is given as 0.8.

The values are drawn from PMC10892093 (Pharmaceutics, 2024).
